Experiment [1] deals with T47D (PI3Kα-H1047R) cell line. Nature of the experiment: HTRF phospho-AKT(S473) cell assay in T47D cells. Type of experiment: cell-based, human. The method in brief:
(§1)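 T47D: RPMI + 10% FBS + 0.2 units/mL insulin, top 5 μM. SKBR3: McCoy's 5A + 10% FBS, top 10 μM, 70 ng/ml PDGF-BB last 15 min. Both: 12-pt 1:3, 2 h, 37° C, max 0.5% DMSO; HTRF pAKT(S473); IC50.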

Experiment [2] relates to SKBR3 (PI3Kα-Wild Type) cell line. Nature of the experiment: HTRF phospho-AKT(S473) cell assay in SKBR3 cells. Type of experiment: cell-based, human. In outline:
as §1
Background: In TR-FRET formats the signal depends on donor and acceptor labels being close together.

Setting [3] is: Homo sapiens; HTRF phospho-AKT(S473), T47D (PI3Kα-H1047R) cells, 2 hours compound incubation.
[4] abbreviates: Homo sapiens, SK-BR-3; HTRF phospho-AKT(S473), SKBR3 (PI3Kα-Wild Type) cells, 2 hours compound incubation, PDGF-BB stimulated.
Where [5] appears, read: Homo sapiens; T47D (PI3Kα-H1047R) cells, HTRF phospho-AKT(S473), 2 hours compound incubation.
The mark [6] stands for this setting: Homo sapiens, SK-BR-3; SKBR3 (PI3Kα-Wild Type) cells, HTRF phospho-AKT(S473), 2 hours compound incubation, PDGF-BB stimulated.

Here are results for 14 molecules from patent US12281122B1, “PI3K inhibitors” (Cogent Biosciences, Inc., priority 2023, dated 2025).

`Cc1cc([C@@H](C)Nc2ccc(Cl)nc2C(=O)NS(C)(=O)=O)c2nc(N3CCC(c4ccnn4CC(F)(F)F)CC3)n(C)c(=O)c2c1` [Compound 488, (R)-6-chloro-3-((1-(3,6-dimethyl-4-oxo-2-(4-(1-(2,2,2-trifloroethyl)-1H-pyrazol-5-yl)piperidin-1-yl)-3,4-dihydroquinazolin-8-yl)ethyl)amino)-N-(methylsulfonyl) picolinamide]: the concentration for half-maximal inhibition (IC50) in experiment [1] (setting [3]) was < 250 nM; in experiment [2] (setting [4]), 1 to 5 µM.

Consider `Cc1cc([C@@H](C)Nc2ccc(Cl)nc2C(=O)NS(C)(=O)=O)c2nc(N3CCC(c4ccnn4C4CC4)CC3)n(C)c(=O)c2c1` [Compound 501, (R)-6-chloro-3-((1-(2-(4-(1-cyclopropyl-1H-pyrazol-5-yl)piperidin-1-yl)-3,6-dimethyl-4-oxo-3,4-dihydroquinazolin-8-yl)ethyl)amino)-N-(methylsulfonyl) picolinamide], for which the IC50 was < 250 nM in experiment [1] (setting [3]) and 1 to 5 µM in experiment [2] (setting [4]).

For the molecule `Cc1ccc(N2C[C@H]3C[C@@H]2CN3c2nc3c([C@@H](C)Nc4ccc(Cl)nc4C(=O)NS(C)(=O)=O)cc(C)cc3c(=O)n2C)nc1` [Compound 609, 6-chloro-3-(((R)-1-(3,6-dimethyl-2-((1R,4R)-5-(5-methylpyridin-2-yl)-2,5-diazabicyclo [2.2.1]heptan-2-yl)-4-oxo-3,4-dihydroquinazolin-8-yl)ethyl)amino)-N-(methylsulfonyl) picolinamide], the IC50 in experiment [1] (setting [3]) was 500 to 1000 nM; in experiment [2] (setting [4]), ≥ 5 µM.

For `Cc1cc([C@@H](C)Nc2ccc(Cl)nc2C(=O)NS(C)(=O)=O)c2nc(N3C[C@@H]4C(c5ncc(Cl)cn5)[C@@H]4C3)n(C)c(=O)c2c1` (stereo partly drawn) [Compound 535, 6-chloro-3-(((1R)-1-(2-((1R,5S)-6-(5-chloropyrimidin-2-yl)-3-azabicyclo[3.1.0]hexan-3-yl)-3,6-dimethyl-4-oxo-3,4-dihydroquinazolin-8-yl)ethyl)amino)-N-(methylsulfonyl) picolinamide], the half-maximal inhibitory concentration (IC50) in experiment [1] (setting [3]) was 250 to 500 nM; in experiment [2] (setting [4]), ≥ 5 µM.

Consider `Cc1cc([C@@H](C)Nc2ccc(Cl)nc2C(=O)NS(C)(=O)=O)c2nc(N3CCC(n4cc(C(F)(F)F)cn4)CC3)n(C)c(=O)c2c1` [Compound 681, (R)-6-chloro-3-((1-(3,6-dimethyl-4-oxo-2-(4-(4-(trifluoromethyl)-1H-pyrazol-1-yl)piperidin-1-yl)-3,4-dihydroquinazolin-8-yl)ethyl)amino)-N-(methylsulfonyl) picolinamide], for which the IC50 in experiment [1] (setting [3]) is 250 to 500 nM; in experiment [2] (setting [4]), ≥ 5 µM.

For the molecule `Cc1cc([C@@H](C)Nc2ccc(Cl)nc2C(=O)NS(C)(=O)=O)c2nc(N3CCN(c4ccc(C#N)cc4)CC3)n(C)c(=O)c2c1` [Compound 190, (R)-6-chloro-3-((1-(2-(4-(4-cyanophenyl)piperazin-1-yl)-3,6-dimethyl-4-oxo-3,4-dihydroquinazolin-8-yl)ethyl)amino)-N-(methylsulfonyl) picolinamide], the IC50 in experiment [1] (setting [5]) is < 250 nM; in experiment [2] (setting [6]), 1 to 5 µM.

In the case of `Cc1cc([C@@H](C)Nc2ccc(Cl)nc2C(=O)NS(C)(=O)=O)c2nc(N3C[C@@H]4[C@H](C3)[C@H]4c3cc(C)n(C4CC4)n3)n(C)c(=O)c2c1` [Compound 567, 6-chloro-3-(((R)-1-(2-((1R,5S,6R)-6-(1-cyclopropyl-5-methyl-1H-pyrazol-3-yl)-3-azabicyclo[3.1.0]hexan-3-yl)-3,6-dimethyl-4-oxo-3,4-dihydroquinazolin-8-yl)ethyl)amino)-N-(methylsulfonyl) picolinamide], the IC50 in experiment [1] (setting [3]) was 250 to 500 nM; in experiment [2] (setting [4]) it was ≥ 5 µM.

As to `Cc1cc([C@@H](C)Nc2ccc(Cl)nc2C(=O)NS(C)(=O)=O)c2nc(N3CCC(n4nc(C#N)c5ccccc54)CC3)n(C)c(=O)c2c1` [Compound 304, (R)-6-chloro-3-((1-(2-(4-(3-cyano-1H-indazol-1-yl)piperidin-1-yl)-3,6-dimethyl-4-oxo-3,4-dihydroquinazolin-8-yl)ethyl)amino)-N-(methylsulfonyl) picolinamide], the IC50 was 250 to 500 nM in experiment [1] (setting [5]) and ≥ 5 µM in experiment [2] (setting [6]).

As to `COc1ncc(F)c(N2CCN(c3nc4c([C@@H](C)Nc5ccc(Cl)nc5C(=O)NS(C)(=O)=O)cc(C)cc4c(=O)n3C)CC2)n1` [Compound 720, (R)-6-chloro-3-((1-(2-(4-(5-fluoro-2-methoxypyrimidin-4-yl)piperazin-1-yl)-3,6-dimethyl-4-oxo-3,4-dihydroquinazolin-8-yl)ethyl)amino)-N-(methylsulfonyl) picolinamide], the half-maximal inhibitory concentration (IC50) in experiment [1] (setting [3]) is < 250 nM; in experiment [2] (setting [4]), 1 to 5 µM.

Turning to `Cc1cc([C@@H](C)Nc2ccc(Cl)nc2C(=O)NS(C)(=O)=O)c2nc(N3CCN(c4ncccn4)CC3)n(C)c(=O)c2c1` [Compound 169, (R)-6-chloro-3-((1-(3,6-dimethyl-4-oxo-2-(4-(pyrimidin-2-yl)piperazin-1-yl)-3,4-dihydroquinazolin-8-yl)ethyl)amino)-N-(methylsulfonyl) picolinamide], the concentration for half-maximal inhibition (IC50) in experiment [1] (setting [5]) is < 250 nM; in experiment [2] (setting [6]) it was 1 to 5 µM.

In the case of `CCn1cc(F)c(C2CCN(c3nc4c([C@@H](C)Nc5ccc(Cl)nc5C(=O)NS(C)(=O)=O)cc(C)cc4c(=O)n3C)CC2)n1` [Compound 758, (R)-6-chloro-3-((1-(2-(4-(1-ethyl-4-fluoro-1H-pyrazol-3-yl)piperidin-1-yl)-3,6-dimethyl-4-oxo-3,4-dihydroquinazolin-8-yl)ethyl)amino)-N-(methylsulfonyl) picolinamide], the IC50 in experiment [1] (setting [3]) is 250 to 500 nM; in experiment [2] (setting [4]), ≥ 5 µM.

Turning to `Cc1cc([C@@H](C)Nc2ccc(Cl)nc2C(=O)NS(C)(=O)=O)c2nc(N3C[C@@H]4[C@H](C3)[C@H]4c3nnc(C)o3)n(C)c(=O)c2c1` [Compound 654, 6-chloro-3-(((R)-1-(3,6-dimethyl-2-((1R,5S,6R)-6-(5-methyl-1,3,4-oxadiazol-2-yl)-3-azabicyclo[3.1.0]hexan-3-yl)-4-oxo-3,4-dihydroquinazolin-8-yl)ethyl)amino)-N-(methylsulfonyl) picolinamide], the IC50 is < 250 nM in experiment [1] (setting [3]) and 1 to 5 µM in experiment [2] (setting [4]).

Take `Cc1cc([C@@H](C)Nc2ccc(Cl)nc2C(=O)NS(C)(=O)=O)c2nc(N3CC[C@@H](Oc4cc[nH]n4)C3)n(C)c(=O)c2c1` [Compound 363, 3-(((R)-1-(2-((R)-3-((1H-pyrazol-3-yl)oxy)pyrrolidin-1-yl)-3,6-dimethyl-4-oxo-3,4-dihydroquinazolin-8-yl)ethyl)amino)-6-chloro-N-(methylsulfonyl) picolinamide]: the IC50 in experiment [1] (setting [5]) was < 250 nM; in experiment [2] (setting [6]), 1 to 5 µM.

Take `CC(=O)N1CCN(c2ccc(-c3nc4c([C@@H](C)Nc5ccc(Cl)nc5C(=O)NS(C)(=O)=O)cc(C)cc4c(=O)n3C)c(F)c2)CC1` [Compound 785, (R)-3-((1-(2-(4-(4-acetylpiperazin-1-yl)-2-fluorophenyl)-3,6-dimethyl-4-oxo-3,4-dihydroquinazolin-8-yl)ethyl)amino)-6-chloro-N-(methylsulfonyl) picolinamide]: the figures for the 50% inhibitory concentration (IC50) in experiment [1] (setting [3]) and in experiment [2] (setting [4]) were < 250 nM and 1 to 5 µM, respectively.

A word on the IC50: it is the midpoint of a concentration-inhibition curve. Higher therefore signals weaker potency.
